Some test systems named below: CAKI-1; EKVX; HCT-116; HCT-15; HOP-92; HT-29; KM12; MCF7; MDA-N; MOLT-4; Malme-3M; NCI-H460; OVCAR-3; OVCAR-5; SF-295; SK-MEL-2; UACC-257; UACC-62; UO-31.
Test in all cases: DTP human tumour cell line panel, 48 h

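Values below derive from 48-hour exposures of cells grown in 96-well plates, with endpoints linearly interpolated between the two concentrations bracketing the appropriate inhibition level. At the GI50, growth is halved.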 The source made the active and inactive calls. Rule as the data show it: active = GI50 up to about 1.1 µM and inactive = higher.

The GI50 is the concentration that inhibits growth by half.

On to `C=C1C(=O)O[C@@H]2/C=C(\C)CC/C=C(/COC(C)=O)C[C@@H](OC(C)=O)[C@@H]12`, for which the GI50 with CAKI-1 was 7.48 µM (inactive); in the experiment on EKVX, 11.1 µM (inactive); with HCT-116, 3.85 µM (inactive); with HCT-15, 3.28 µM; in the experiment with HOP-92, 7.73 µM (inactive); with HT-29 it was 4.24 µM (inactive). The GI50 was 14.8 µM (inactive) in the experiment with KM12; 3.71 µM (inactive) with MCF7; 6 µM (inactive) in the experiment on MDA-N; 3.45 µM (inactive) in the experiment with MOLT-4; 1.46 µM (inactive) in the experiment with Malme-3M; 12.1 µM (inactive) in the experiment on NCI-H460. For the same compound, the GI50 with OVCAR-3 was 4.49 µM (inactive); in the experiment with OVCAR-5, 17.4 µM (inactive); with SF-295, 53.7 µM (inactive); in the experiment on SK-MEL-2, 16 µM (inactive); in the experiment with UACC-257 it was 13.4 µM (inactive); with UACC-62, 12.4 µM (inactive). Besides, in the experiment on UO-31, the GI50 was 8.87 µM (inactive).
For the compound `O=C(CBr)NCCc1c[nH]c2ccccc12`, the GI50 in the experiment with CAKI-1 is 0.776 µM (active); in the experiment with EKVX, 1.79 µM (inactive); in the experiment on HCT-116, 1.65 µM (inactive); in the experiment with HCT-15, 1.76 µM; in the experiment on HOP-92, 2.29 µM (inactive); with HT-29, 1.83 µM (inactive). In addition, the GI50 was 1.93 µM (inactive) with KM12; 2 µM (inactive) in the experiment with MCF7; 2.02 µM (inactive) with MDA-N; 0.406 µM (active) with MOLT-4; 2.94 µM (inactive) in the experiment with Malme-3M; 6.44 µM (inactive) in the experiment with NCI-H460. Further, the GI50 with OVCAR-3 is 1.92 µM (inactive); with OVCAR-5, 1.87 µM (inactive); in the experiment with SF-295 it was 13.7 µM (inactive); in the experiment with SK-MEL-2 it was 1.92 µM (inactive); in the experiment on UACC-257 it was 3.01 µM (inactive); with UACC-62, 1.75 µM (inactive). Also, the GI50 with UO-31 was 1.72 µM (inactive).
In the case of `Clc1ccc(Oc2ccc(/N=C/c3ccc(Cl)cc3Cl)cc2Cl)cc1`, the GI50 was 36.5 µM (inactive) in the experiment on CAKI-1; 30.1 µM (inactive) in the experiment on EKVX; 33 µM (inactive) with HCT-116; 23.8 µM in the experiment with HCT-15; 34.2 µM (inactive) in the experiment with HOP-92; 36.9 µM (inactive) in the experiment on HT-29. The GI50 in the experiment with KM12 is 29.5 µM (inactive); with MCF7, 33.7 µM (inactive); in the experiment with MDA-N it was 14.8 µM (inactive); with MOLT-4, 21.7 µM (inactive); in the experiment on Malme-3M, 27.3 µM (inactive); in the experiment with NCI-H460, 63.7 µM (inactive). Moreover, the GI50 with OVCAR-3 is 33.8 µM (inactive); in the experiment with OVCAR-5, > 100 µM (inactive); in the experiment on SF-295, 39.5 µM (inactive); in the experiment on SK-MEL-2, 61.2 µM (inactive); with UACC-257, 66.1 µM (inactive); with UACC-62, 37.7 µM (inactive). For the same compound, the GI50 with UO-31 is 21.6 µM (inactive).
In the case of `C#CCC(O)c1ccc(OC)c(OCc2ccccc2)c1` (stereo not drawn), the GI50 was > 100 µM (inactive) with CAKI-1; 56.2 µM (inactive) with EKVX; > 100 µM (inactive) with HCT-116; more than 100 µM in the experiment on HCT-15; > 100 µM (inactive) in the experiment on HOP-92; > 100 µM (inactive) in the experiment on HT-29. Besides, the GI50 with KM12 is > 100 µM (inactive); in the experiment on MCF7, > 100 µM (inactive); with MDA-N, > 100 µM (inactive); with MOLT-4 it was 23.6 µM (inactive); in the experiment on Malme-3M, > 100 µM (inactive); with NCI-H460, > 100 µM (inactive). For the same compound, the GI50 in the experiment on OVCAR-3 is > 100 µM (inactive); in the experiment on OVCAR-5 it was > 100 µM (inactive); in the experiment on SF-295, 98.4 µM (inactive); in the experiment on SK-MEL-2, > 100 µM (inactive); in the experiment with UACC-257, 52.1 µM (inactive); in the experiment on UACC-62, > 100 µM (inactive). The GI50 in the experiment with UO-31 was > 100 µM (inactive).
Consider `CCOc1ccc(C2Oc3c(cccc3OC)C=C2[N+](=O)[O-])cc1OCC` (stereo not drawn), for which the GI50 is 2.94 µM (inactive) in the experiment with CAKI-1; 16.7 µM (inactive) in the experiment with EKVX; 1.5 µM (inactive) in the experiment with HCT-116; 4.86 µM with HCT-15; 12.6 µM (inactive) with HOP-92; 2.86 µM (inactive) in the experiment on HT-29. Also, the GI50 was 5.43 µM (inactive) with KM12; 3.52 µM (inactive) in the experiment on MCF7; 2.04 µM (inactive) in the experiment with MDA-N; 4.22 µM (inactive) in the experiment on MOLT-4; 2.3 µM (inactive) in the experiment with Malme-3M; 7.28 µM (inactive) in the experiment on NCI-H460. Besides, the GI50 was 4.91 µM (inactive) in the experiment with OVCAR-3; 9.59 µM (inactive) in the experiment with OVCAR-5; 15.3 µM (inactive) with SF-295; 5.64 µM (inactive) in the experiment with SK-MEL-2; 3.66 µM (inactive) with UACC-257; 5.32 µM (inactive) in the experiment on UACC-62. Moreover, the GI50 in the experiment on UO-31 is 2.64 µM (inactive).
Consider `O=c1oc2ccc([N+](=O)[O-])cc2c(Nc2ccc3c(c2)S(=O)(=O)c2ccccc2O3)c1[N+](=O)[O-]`, for which the GI50 is > 100 µM (inactive) in the experiment with CAKI-1; > 100 µM (inactive) in the experiment on EKVX; 73.5 µM (inactive) in the experiment on HCT-116; 83 µM in the experiment with HCT-15; 51.2 µM (inactive) in the experiment on HOP-92; 65.9 µM (inactive) with HT-29. Besides, the GI50 in the experiment with KM12 was > 100 µM (inactive); with MCF7, > 100 µM (inactive); in the experiment with MDA-N, 68.1 µM (inactive); in the experiment with MOLT-4, 40.1 µM (inactive); in the experiment with Malme-3M, > 100 µM (inactive); in the experiment on NCI-H460 it was 98.4 µM (inactive). For the same compound, the GI50 with OVCAR-3 was 69.3 µM (inactive); in the experiment on OVCAR-5, > 100 µM (inactive); with SF-295, 60.4 µM (inactive); with SK-MEL-2, 52.2 µM (inactive); in the experiment on UACC-257, > 100 µM (inactive); in the experiment with UACC-62, 43.8 µM (inactive). Besides, the GI50 in the experiment with UO-31 is 53.3 µM (inactive).
`Cc1c(N2C(=O)C(Cl)C2/C=C/c2ccccc2)c(=O)n(-c2ccccc2)n1C` (stereo not drawn): the GI50 is 53 µM (inactive) in the experiment on CAKI-1; 6.41 µM (inactive) in the experiment on EKVX; 16.9 µM (inactive) with HCT-116; 14.1 µM (inactive) with HOP-92; 24.4 µM (inactive) in the experiment with HT-29; 12.7 µM (inactive) with KM12. The GI50 was 24.7 µM (inactive) in the experiment on MCF7; 14.4 µM (inactive) in the experiment with MDA-N; 13.4 µM (inactive) in the experiment with MOLT-4; 5.75 µM (inactive) with Malme-3M; 26.7 µM (inactive) in the experiment with NCI-H460; 20.8 µM (inactive) with OVCAR-3. Moreover, the GI50 with OVCAR-5 is 43.9 µM (inactive); in the experiment on SF-295, 22.1 µM (inactive); with SK-MEL-2 it was 17.3 µM (inactive); in the experiment on UACC-257, 4.68 µM (inactive); in the experiment with UACC-62 it was 14.9 µM (inactive); with UO-31, 28.1 µM (inactive).
Consider `O=C(O)CSCCc1ccccc1`, for which the GI50 was > 100 µM (inactive) in the experiment with CAKI-1; > 100 µM (inactive) with EKVX; > 100 µM (inactive) with HCT-116; more than 100 µM in the experiment with HCT-15; > 100 µM (inactive) in the experiment with HOP-92; > 100 µM (inactive) in the experiment with HT-29. For the same compound, the GI50 with KM12, with MCF7, with MDA-N, in the experiment with MOLT-4, with Malme-3M and with NCI-H460 was > 100 µM (inactive) throughout. Moreover, the GI50 in the experiment on OVCAR-3, in the experiment on OVCAR-5, in the experiment on SF-295, in the experiment on SK-MEL-2, with UACC-257 and with UACC-62 was > 100 µM (inactive) each time. The GI50 in the experiment on UO-31 is > 100 µM (inactive).
As for `Cc1ccc(O)c(C2=CC3=NNC(=O)C3C(c3cccc(Cl)c3)C2)c1` (stereo not drawn), the GI50 was 32.5 µM (inactive) in the experiment with CAKI-1; 37.3 µM (inactive) with EKVX; 30.9 µM (inactive) in the experiment on HCT-116; 30.6 µM with HCT-15; 24 µM (inactive) in the experiment with HOP-92; 25.9 µM (inactive) in the experiment with HT-29. Moreover, the GI50 is 21.8 µM (inactive) in the experiment on KM12; 17.7 µM (inactive) with MCF7; 29.5 µM (inactive) in the experiment on MDA-N; 46.2 µM (inactive) in the experiment on MOLT-4; 35.3 µM (inactive) in the experiment on Malme-3M; 32.4 µM (inactive) in the experiment with NCI-H460. Besides, the GI50 with OVCAR-3 was 26.4 µM (inactive); in the experiment on OVCAR-5, 51.6 µM (inactive); in the experiment on SF-295, 37.6 µM (inactive); in the experiment on SK-MEL-2, 28.2 µM (inactive); in the experiment with UACC-257 it was 64.3 µM (inactive); in the experiment with UACC-62, 24.9 µM (inactive). The GI50 in the experiment on UO-31 is 71.6 µM (inactive).
With `C=C(CCC/C(C)=C/C=C/[C@@H](C)CCCc1ccoc1)C[C@@H]1OC(=O)[C@H](C)[C@@H]1O`, the GI50 with CAKI-1 is 9.91 µM (inactive); in the experiment with EKVX, 9.2 µM (inactive); in the experiment on HCT-116 it was 13.3 µM (inactive); with HCT-15 it was 10.1 µM; in the experiment with HOP-92, 10.6 µM (inactive); in the experiment with HT-29 it was > 50 µM (inactive). Further, the GI50 in the experiment on KM12 is 7.24 µM (inactive); in the experiment with MCF7, 7.89 µM (inactive); with MDA-N, 9.73 µM (inactive); with MOLT-4, 16.1 µM (inactive); in the experiment on Malme-3M it was 8.91 µM (inactive); in the experiment on NCI-H460, 11 µM (inactive). Moreover, the GI50 was 7.13 µM (inactive) in the experiment with OVCAR-3; 18.4 µM (inactive) in the experiment with OVCAR-5; 7.6 µM (inactive) in the experiment on SF-295; 8.18 µM (inactive) in the experiment on SK-MEL-2; 6.35 µM (inactive) with UACC-257; 5.27 µM (inactive) with UACC-62. Besides, the GI50 in the experiment with UO-31 was 7.85 µM (inactive).
With `CC(C)SC1SCC2C(=O)N(C)C3(CC3C)C(=O)OCC(NC(=O)c3nc4ccccc4cc3O)C(=O)NC(C)C(=O)N(C)C1C(=O)N(C)C1(CC1C)C(=O)OCC(NC(=O)c1nc3ccccc3cc1O)C(=O)NC(C)C(=O)N2C` (stereo not drawn), the GI50 was < 0.0001 µM (active) in the experiment with CAKI-1; 0.00298 µM (active) with EKVX; < 0.0001 µM (active) in the experiment with HCT-116; less than 0.0001 µM in the experiment on HCT-15; < 0.0001 µM (active) in the experiment on HOP-92; < 0.0001 µM (active) in the experiment on HT-29. The GI50 in the experiment with KM12, in the experiment with MCF7, in the experiment with MDA-N, in the experiment on MOLT-4, in the experiment with Malme-3M and with NCI-H460 was < 0.0001 µM (active) throughout. The concentration for 50% growth inhibition (GI50) in the experiment on OVCAR-3, with OVCAR-5, with SF-295, in the experiment with SK-MEL-2, in the experiment on UACC-257 and in the experiment on UACC-62 was < 0.0001 µM (active) in each case. Further, the GI50 with UO-31 is < 0.0001 µM (active).
